Measured values as given in ChEMBL document CHEMBL4118082 (Eur J Med Chem, 2017).
Converted amounts (≈) assume the structure as drawn.

What was measured:
[1] = Cytotoxicity against human MRC5 cells assessed as reduction in cell viability after 24 hrs by neutral red uptake assay; type: cell-based
[2] = tested on: Mycobacterium avium; experiment: Antimycobacterial activity against Mycobacterium avium ssp. avium ATCC 15769 harboring pSMT1 carrying luxAB gene after 6 days by luminescence based serial dilution method; type: functional, Mycobacterium avium subsp. avium; details: ATCC 15769, 144 h
[3] = tested on: Mycobacterium avium; experiment: Antimycobacterial activity against Mycobacterium avium ssp. paratuberculosis ATCC 19698 harboring pSMT1 carrying luxAB gene after 6 days by luminescence based serial dilution method; type: functional, Mycobacterium avium subsp. paratuberculosis; details: ATCC 19698, 144 h
[4] = tested on: Mycolicibacterium smegmatis; experiment: Antimycobacterial activity against Mycobacterium smegmatis MC2 155 harboring pSMT1 carrying luxAB gene after 6 days by luminescence based serial dilution method; type: functional; details: str. MC2 155, 144 h

SMILES	CC50 at 24 h [1]	MIC90 [2]	MIC90 [3]	MIC90 [4]
CC(=O)Oc1c(-c2ccccc2)c(=O)[nH]c2ccc(F)cc12	88.4 µM	8.9 µM (≈ 2.65 µg/mL)	7.5 µM (≈ 2.23 µg/mL)	9.5 µM (≈ 2.82 µg/mL)
O=c1c(-c2ccccc2)c(O)c2ccccc2n1-c1ccccc1	> 128 µM	35.4 µM (≈ 11.1 µg/mL)	23.8 µM (≈ 7.46 µg/mL)	10.3 µM (≈ 3.23 µg/mL)
COc1cccc2c(O)c(-c3ccccc3)c(O)nc12	104 µM	13 µM (≈ 3.47 µg/mL)	18 µM (≈ 4.81 µg/mL)	15.1 µM (≈ 4.04 µg/mL)
COc1ccc2c(O)c(-c3ccccc3)c(=O)[nH]c2c1	59 µM	13.8 µM (≈ 3.69 µg/mL)	16.5 µM (≈ 4.41 µg/mL)	19.5 µM (≈ 5.21 µg/mL)
O=c1[nH]c2cc(O)ccc2c(O)c1-c1ccccc1	92.1 µM	16.3 µM (≈ 4.13 µg/mL)	15.7 µM (≈ 3.98 µg/mL)	18.5 µM (≈ 4.69 µg/mL)
Cc1ccc2[nH]c(=O)c(-c3ccccc3)c(O)c2c1	> 128 µM	12.6 µM (≈ 3.17 µg/mL)	13.2 µM (≈ 3.32 µg/mL)	19.2 µM (≈ 4.82 µg/mL)
NNC(=O)c1ccncc1 [ISONIAZID]		< 0.1 µM	< 0.1 µM	< 0.1 µM
Cc1cc2[nH]c(=O)c(-c3ccccc3)c(O)c2cc1C	61.8 µM	15.7 µM (≈ 4.17 µg/mL)	20.3 µM (≈ 5.39 µg/mL)	17.3 µM (≈ 4.59 µg/mL)
Oc1nc2ccccc2c(O)c1-c1ccccc1	96.5 µM	19.8 µM (≈ 4.7 µg/mL)	21.2 µM (≈ 5.03 µg/mL)	23.5 µM (≈ 5.58 µg/mL)
O=c1[nH]c2ccc(F)cc2c(O)c1-c1ccccc1	67.4 µM	8.5 µM (≈ 2.17 µg/mL)	11.5 µM (≈ 2.94 µg/mL)	8.4 µM (≈ 2.14 µg/mL)
O=c1[nH]c2c(O)cccc2c(O)c1-c1ccccc1	84.1 µM	17 µM (≈ 4.31 µg/mL)	13.7 µM (≈ 3.47 µg/mL)	20 µM (≈ 5.07 µg/mL)
O=c1[nH]c2ccc(O)cc2c(O)c1-c1ccccc1	> 128 µM	15.6 µM (≈ 3.95 µg/mL)	13.2 µM (≈ 3.34 µg/mL)	16.8 µM (≈ 4.25 µg/mL)
COc1ccc2[nH]c(=O)c(-c3ccccc3)c(O)c2c1	75.4 µM	17.5 µM (≈ 4.68 µg/mL)	18.6 µM (≈ 4.97 µg/mL)	15.3 µM (≈ 4.09 µg/mL)
Cc1c(O)c2ccccc2[nH]c1=O	84.7 µM	18.4 µM (≈ 3.22 µg/mL)	14.5 µM (≈ 2.54 µg/mL)	23.2 µM (≈ 4.06 µg/mL)
